Measured values published in patent US20110269790A1, “NOVEL THIENOPYRIDINES AS PHARMACOLOGICALLY ACTIVE AGENTS” (priority 2009, published 2011).
Where “and” joins values, the source holds several entries; their conditions need not be identical. Equal entries are not always repeated.

Experiments:
mice = assay: Adenosine mediated bronchoconstriction and lung inflammation in an allergic mouse model; format: in vivo; design: Total count: unit not given here; conditions: BAL fluid cells; 100 mg/kg oral
Description: Thienopyridines were proven as potent cytotoxic and anti-inflammatory agents in the previous experimental results. In cytotoxic MTT assay, activity of these molecules may be due to the involvement of adenosine receptors. Further, to find the bronchodilatory activity of these moieties and to find the involvement of adenosine receptors in their action, non-invasive and invasive adenosine mediated bronchoconstriction and lung inflammation in an allergic mouse model was performed.
Male mice, 6-8 weeks of age, free of specific pathogens were obtained from National Institute of Nutrition. The animals were maintained on a ragweed-free diet. All experimental protocols used in this study were under a protocol approved by animal ethical committee. Sensitization was performed according to the modified procedure described by Fan et al, 2002. Mice were sensitized on days 1 and 6 with i.p. injections of ragweed allergen (200 μg/200 μl of water for injection). Non-sensitized control animals received only water for injection with the same volumes. Ten days after sensitization, the mice were placed in plexiglas chamber and challenged with 0.5% ragweed or with 0.9% saline as a control for twenty minutes both in the morning and evening for three days. Then mice were divided into different groups consisting of six animals each. The groups including a control without sensitization; a sensitized group and a standard group along with groups of the test molecules were separated. Twenty-four hours after last challenge with ragweed, the mice were given an oral dose of test molecules and theophylline (100 mg/kg body weight) as acacia suspension. Two hours after administration of the oral dose, the mice were challenged with adenosine solution (24 mg/ml). The variation in respiration was recorded after anaesthetizing them with pentobarbitone sodium (0.1 ml 200 mg/ml ip) using kymograph. Then, mice were sacrificed and trachea was cannulated to collect the bronchoalveolar lavage fluid. This was performed by pumping 1 ml phosphate buffered saline into lungs through tracheal cannula and collecting the sample. Analysis of BAL fluid was performed to get the cellular differentials. The BAL fluid was centrifugated at 1500 rpm for six minutes at room temparature. After removing the supernatant, BAL cells were resuspended in 1 ml of phosphate buffered saline. Total cells were then counted manually in a hemocytometer chamber. A differential count of at least 300 cells was made according to the standard morphologic criteria and results were mentioned in table.

Wistar rats [1] = assay: Freund's complete adjuvant (FCA) induced arthritis; format: in vivo, rat; conditions: 17th day and 21st day, 100 mg/kg, vs arthritic control
IL-1β = IL-1β in paw tissue and serum, collagen induced arthritis; format: in vivo, rat; conditions: for Inhibition of IL-1β in paw tissues: collagen induced study, day 24, 100 mg/kg/day; for Reduction of IL-1β levels in serum: collagen study, vs arthritic control
Text: It is believed that these proinflammatory cytokines help to propagate a local or systemic inflammatory process, and to induce biosynthesis and secretion of metalloproteinases (MMPs) and osteoclasts that critically contribute to degradation of extracellular matrix and erosion of bone respectively (Burger et al., 1998; Gravallese and Goldring, 2000; Smolen and Steiner, 2003).
On termination day blood samples were collected and serum was used for the estimation of Both TNF-α and IL-1β levels in FCA and Collagen induced studies. Both the parameters were determined using ELISA kits.

[2] = Acute oral toxicity, main study in mice; conditions: both sexes, mouse, in vivo, single oral dose, read-out: Maximum tolerated dose
Description: (§1) In the preliminary sighting study, the effect of various dosed administered to single animals of each sex was investigated in a sequential manner. The sighting study generally yields information on the dose-toxicity relationship including an estimate of the minimum lethal dose. In the main study, the test article is administered to groups of 5 males and 5 female animals at one of the fixed doses (5, 50, 500 and 2000 mg/Kg). The dose is derived from the sighting study. It is immediately below that which is expected to result in mortality. If evident toxicity is not seen at the chosen dose level, the substance should be retested at the next higher dose level. If at the initial dose level, animals die, or a severe toxicity reaction requires removal of animals from the study for animal welfare reasons, the substance is retested at the next lower dose level. Consideration of data from the both sighting study and the main study enabled a judgment to be made on determination of maximum tolerated dose.
(§2) At least 10 animals (5 males and 5 females) for each species were used for dose level in this study. Animals were fasted overnight and test articles were administered as 1% gum acacia suspension orally. The dose used in this study is selected from one of four levels 5 mg/kg, 50 mg/kg, 500 mg/kg and 2000 mg/kg i.e. the dose that produced evident toxicity but not mortality in sighting study. […] Different biochemical and hematology parameters observed on “0’ day and on termination day .During main study physical parameters like feed consumption and body weight increase were also recorded. 5 males and females were taken, and toxicity study conducted for the compounds. […] Hematology and biochemical parameters were well and within normal range when compared with 0 day in rats and mice. Based on above observations synthetic compounds were safe upto 2000 mg/kg.

[3] = Acute oral toxicity, main study in rats; conditions: both sexes, Albino Wistar, rat, in vivo, single oral dose, read-out: Maximum tolerated dose
Description: as §1, §2

rats = assay: Collagen induced arthritis; format: in vivo, rat; conditions: collagen induced study; BN compounds 100 mg/kg, Indomethacin 2.5 mg/kg
Text: Group I—Normal Control; Group II—Arthritic control; Group III—Arthritic rats administered with Synthetic compound BN-4; Group IV—arthritic rats administered with compound BN-14; Group V—arthritic rats administered with BN-16; Group VI—arthritic rats administered with standard drug indomethacin. […] The test and indomethacin doses continued up to 21 days in FCA induced model and 24 days in collagen induced model. […] Before sacrificing the animals, blood was collected and used for estimation of total leukocyte count, TNF-α and IL-1β. […] In collagen induced study the total WBC count was analyzed by using cell counter and count as follows; […]

Wistar rats [4] = assay: Arachidonic acid induced paw edema; format: in vivo, rat; conditions: one hour after Arachidonic acid
Description: Paw edema was produced in rats by Arachidonic acid following the method of Dimartino et al. (1987) and Laura segura et al., 1998. wistar rats weighing between 130-150 g were divided in to groups of six animals (n=6).A volume of 0.1 ml of 0.5% Arachidonic acid in 0.2M Carbonate buffer was injected in to the plantar side of the right hind paw of the rat. Paw volumes were measured using plethysmometer before and after one hour Arachidonic acid injection. Results obtained were compared with those obtained from the control group, which received vehicle only.

For `Cc1sc2nc3c(c(N)c2c1C)CCC3` [BN-1, 2,3-dimethyl-6,7-dihydro-5H-cyclopenta[b]thieno[3,2-e]pyridin-4-amine], the “Differential count (%) Eosinophils” value (mice) was 12%, the “Differential count (%) Lymphocytes” value (mice) was 65% and the “Differential count (%) Monocytes” value (mice) was 20%. The Total count (mice) was 12.

In the case of `Nc1c2c(nc3sc4c(c13)CCC4)CCCC2` [BN-14, 2,3,6,7,8,9-Hexahydro-1H-cyclopenta[4,5]thieno[2,3-b]quinolin-10-amine], the Arthritic scoring (Wistar rats [1]) is reported as “significantly reduced”, the “Inhibition of IL-1β in paw tissues” value (IL-1β) is reported as “more significant inhibition (p<0.01)” and the “Reduction of IL-1β levels in serum” value (IL-1β) is reported as “moderate inhibition (p<0.05)”. The MTD at 14 days [2] was 1250 mg/kg, the MTD at 14 days [3] was 1060 mg/kg and the “Differential count (%) Eosinophils” value (mice) was 15%. The “Differential count (%) Lymphocytes” value (mice) was 80%, the “Differential count (%) Monocytes” value (mice) was 13.5% and the Total count (mice) was 13.5. The “Total WBC count” value (rats) was 14.88±2.64, the “% Inhibition” value (Wistar rats [4]; 50 mg/kg) was 24.21 ± 3.89% and the “Percentage Swelling (50 mg/kg)” value (Wistar rats [4]; 50 mg/kg) was 50.56 ± 3.12 %. For the same molecule, the “% Inhibition” value (Wistar rats [4]; 100 mg/kg) was 33.6 ± 3.11%, the “Percentage Swelling (100 mg/kg)” value (Wistar rats [4]; 100 mg/kg) was 45.64 ± 2.0 % and the “% Inhibition” value (Wistar rats [4]; 200 mg/kg) was 41.37% and 41.37 ± 2.40%. The “Percentage Swelling (200 mg/kg)” value (Wistar rats [4]; 200 mg/kg) was 38.70 ± 1.60 %.

In the case of `Nc1c2c(nc3sc4c(c13)CCC4)CCCCCC2` [BN-17, 2,3,6,7,8,9,10,11-Octahydro-1H-cycloocta [b]cyclopenta[4,5]thieno[3,2-e]pyridin-12-amine], the “Differential count (%) Eosinophils” value (mice) is reported as 25%, the “Differential count (%) Lymphocytes” value (mice) is reported as 75% and the “Differential count (%) Monocytes” value (mice) is reported as 9%. For the same molecule, the Total count (mice) was 9.

In the case of `CC1CCc2c(nc3sc4c(c3c2N)CCC4)C1` (stereo not shown) [BN-15, 7-Methyl-2,3,6,7,8,9-hexahydro-1H-cyclopenta[4,5]thieno[2,3-b]quinolin-10-amine], the “Differential count (%) Eosinophils” value (mice) is reported as 10%, the “Differential count (%) Lymphocytes” value (mice) is reported as 63.5% and the “Differential count (%) Monocytes” value (mice) is reported as 16.5%. For the same molecule, the Total count (mice) was 13.

With `CC1CCc2c(nc3sc4c(c3c2N)CCCC4)C1` (stereo not shown) [BN-7, 8-Methyl-1,2,3,4,7,8,9,10-octahydrobenzo[4,5]thieno[2,3-b]quinolin-11-amine] the “Differential count (%) Eosinophils” value (mice) was 20%, the “Differential count (%) Lymphocytes” value (mice) was 70% and the “Differential count (%) Monocytes” value (mice) was 10%. For the same molecule, the Total count (mice) was 7.

In the case of `Nc1c2c(nc3sc4c(c13)CCC4)CCCCC2` [BN-16, 1,2,3,6,7,8,9,10-Octahydrocyclohepta[b]cyclopenta[4,5]thieno[3,2-e]pyridine-11-amine], the Arthritic scoring (Wistar rats [1]) is reported as “significantly reduced”, the “Inhibition of IL-1β in paw tissues” value (IL-1β) is reported as “moderate inhibition (p<0.05)” and the “Reduction of IL-1β levels in serum” value (IL-1β) is reported as “more significantly (p<0.01) reduced”. For the same molecule, the MTD at 14 days [2] was greater than 2000 mg/kg, the MTD at 14 days [3] was greater than 2000 mg/kg and the “Differential count (%) Eosinophils” value (mice) was 12%. For the same molecule, the “Differential count (%) Lymphocytes” value (mice) was 90%, the “Differential count (%) Monocytes” value (mice) was 15% and the Total count (mice) was 8. The “Total WBC count” value (rats) was 15.70±1.28, the “% Inhibition” value (Wistar rats [4]; 50 mg/kg) was 21.72 ± 2.80% and the “Percentage Swelling (50 mg/kg)” value (Wistar rats [4]; 50 mg/kg) was 52.32 ± 2.37 %. The “% Inhibition” value (Wistar rats [4]; 100 mg/kg) was 34.10 ± 2.82%, the “Percentage Swelling (100 mg/kg)” value (Wistar rats [4]; 100 mg/kg) was 44.95 ± 2.0 % and the “% Inhibition” value (Wistar rats [4]; 200 mg/kg) was 45.63% and 45.63 ± 2.87%. The “Percentage Swelling (200 mg/kg)” value (Wistar rats [4]; 200 mg/kg) was 36.30 ± 1.80 %.

For `Nc1c2c(nc3sc4c(c13)CCCC4)CCCC2` [BN-6, 1,2,3,4,7,8,9,10-Octahydrobenzo[4,5]thieno[2,3-b]quinolin-11-amine], the “Differential count (%) Eosinophils” value (mice) was 15%, the “Differential count (%) Lymphocytes” value (mice) was 75% and the “Differential count (%) Monocytes” value (mice) was 10%. For the same molecule, the Total count (mice) was 10.5.

In the case of `COc1ccc2c(c1)c(CC(=O)O)c(C)n2C(=O)c1ccc(Cl)cc1` [Indomethacin, reference compound], the “Inhibition of IL-1β in paw tissues” value (IL-1β) is reported as “moderate inhibition (p<0.05)”, the “Reduction of IL-1β levels in serum” value (IL-1β) is reported as “moderate inhibition (p<0.05)” and the “Total WBC count” value (rats) is reported as 19.70±2.23.

In the case of `Cc1sc2nc3c(c(N)c2c1C)CCCCC3` [BN-4, 2,3-dimethyl-6,7,8,9-tetrahydro-5H-cyclohepta[b]thieno[3,2-e]pyridin-4-amine], the Arthritic scoring (Wistar rats [1]) is reported as “significantly reduced”, the “Inhibition of IL-1β in paw tissues” value (IL-1β) is reported as “more significant inhibition (p<0.01)” and the “Reduction of IL-1β levels in serum” value (IL-1β) is reported as “more significantly (p<0.01) reduced”. For the same molecule, the MTD at 14 days [2] was greater than 2000 mg/kg, the MTD at 14 days [3] was greater than 2000 mg/kg and the “Differential count (%) Lymphocytes” value (mice) was 80%. For the same molecule, the “Differential count (%) Monocytes” value (mice) was 20%, the Total count (mice) was 9 and the “Total WBC count” value (rats) was 13.57±0.63. The “% Inhibition” value (Wistar rats [4]; 50 mg/kg) was 19.13 ± 2.01%, the “Percentage Swelling (50 mg/kg)” value (Wistar rats [4]; 50 mg/kg) was 55.32 ± 2.06 % and the “% Inhibition” value (Wistar rats [4]; 100 mg/kg) was 29.94 ± 3.37%. For the same molecule, the “Percentage Swelling (100 mg/kg)” value (Wistar rats [4]; 100 mg/kg) was 48.54 ± 2.2 %, the “% Inhibition” value (Wistar rats [4]; 200 mg/kg) was 44.92% and 44.92 ± 3.10% and the “Percentage Swelling (200 mg/kg)” value (Wistar rats [4]; 200 mg/kg) was 37.50 ± 1.60 %.

For `Nc1c2c(nc3sc4c(c13)CCCCC4)CCC2` [BN-18, 1,2,3,6,7,8,9,10-Octahydrocyclohepta[4,5] thieno[2,3-b]cyclopenta [e]pyridin-11-amine], the “Differential count (%) Eosinophils” value (mice) was 20%, the “Differential count (%) Lymphocytes” value (mice) was 70% and the “Differential count (%) Monocytes” value (mice) was 15%. For the same molecule, the Total count (mice) was 18.

With `Nc1c2c(nc3sc4c(c13)CCC4)CCC2` [BN-13, 1,2,3,6,7,8-hexahydrocyclopenta [b]cyclopenta[4,5] thieno[3,2-e]pyridin-9-amine] the “Differential count (%) Eosinophils” value (mice) was 20%, the “Differential count (%) Lymphocytes” value (mice) was 74% and the “Differential count (%) Monocytes” value (mice) was 16.5%. For the same molecule, the Total count (mice) was 8.

With `Nc1c2c(nc3sc4c(c13)CCCC4)CCCCC2` [BN-8, 2,3,4,7,8,9,10,11-Octahydro-1H-benzo[4,5]thieno[2,3-b]cyclohepta [e]pyridin-12-amine] the “Differential count (%) Eosinophils” value (mice) was 20%, the “Differential count (%) Lymphocytes” value (mice) was 70% and the “Differential count (%) Monocytes” value (mice) was 10%. The Total count (mice) was 14.
